In patent US20230158057A1, “COMPOSITIONS AND METHODS FOR THE TREATMENT OF PAIN” (Duke University, priority 2020, published 2023):
Entries after “also recorded” stand apart in the source; their conditions may differ.

Key:
tumor-bearing femora = test: Bone fractures of tumor-bearing femora on d17 after LLC inoculation; assay type: in vivo, mouse; settings: vehicle 87.5%
Protocol: Development and progression of cancer-induced osteolytic bone destruction frequently leads to bone fracture, which is an important component of SREs in patients with bone metastasis and is associated with decreased overall survival. On d17 after LLC inoculation, mice were euthanized and the tumor bearing femora were collected and the distal tumor-bearing femur where bone destruction occurs was analyzed.

[1] = system: mice with intrafemoral Lewis lung carcinoma (LLC); test: LLC bone cancer pain model, systemic (i.p.) treatment, behavior tests and body weight; assay type: in vivo, mouse
Protocol: Bone cancer pain model. The murine cell lines LLC1, LL/2-Luc2 or E0771 were lightly digested using 0.05% trypsin, followed by centrifugation to remove poorly digested cell clusters. Cells were then resuspended in PBS at a concentration of 1×10^8 cells/ml. The inoculation was performed as previously described (Wang, K. et al. “PD-1 blockade inhibits osteoclast formation and murine bone cancer pain.” The Journal of clinical investigation, (2020); Wang, Z. et al. “Anti-PD-1 treatment impairs opioid antinociception in rodents and nonhuman primates.” Sci Transl Med 12 (2020)). Briefly, mice were anesthetized with 4% isoflurane and the left leg was shaved and the skin disinfected with 10% povidone-iodine and 75% ethanol. A superficial incision (0.5-1 cm) was made near the knee joint, exposing the patellar ligament. […] The syringe contents were slowly injected into the femoral cavity over a 2-minute interval. To prevent further leakage of tumor cells outside of the bone cavity, the outer injection site was sealed with silicone adhesive (Kwik-Sil, World Precision Instruments, US). Animals with surgery related movement dysfunction or with outside bone tumor injection were excluded from the study. Drug treatment. […] All other reagents were dissolved in sterile saline or PBS. For experiments utilizing rabbit anti-IFN-α or -β neutralizing antibodies, a polyclonal rabbit IgG antibody served as the control. […] Behavior tests. All the behavioral tests were conducted in a blinded manner and performed during between the hours of 9:00-16:00. Animals were habituated in a light and humidity controlled testing environment for at least 2 days prior to baseline testing. For Von Frey testing, mice were confined to individual 5×5 cm boxes placed on an elevated wire grid. A blinded experimenter stimulated their hindpaws using a series of von Frey filaments with logarithmically increasing stiffness (0.02-2.56 g, Stoelting). Each filament was applied perpendicularly to the central plantar surface. The 50% paw withdrawal threshold was determined using Dixon's up-down method.

naïve mice [2] = test: Von Frey testing of mechanical thresholds in naïve mice (WT and knockout); assay type: in vivo, mouse; settings: for mechanical sensory thresholds (von Frey): i.t. injection
Protocol: (§1) Reflexive-based sensory testing in mice: All behavioral testing in mice was performed in a specialized humidity- and light-controlled mouse behavior facility maintained at 21-24° C., with testing conducted between the hours of 8:00-16:00. Mice were habituated to the testing environment for at least 2 days prior to baseline testing. All tests were performed by an experimenter who was blinded to experimental conditions, including genotypes and drug treatment. For multi-day experiments using STING agonists, mice were tested in the same room at approximately the same time each day. To measure mechanical sensitivity, mice were confined to individual chambers with non-transparent borders on an elevated mesh rack, preventing mice from visualizing or interacting with one another during the testing period. Mouse hindpaws were stimulated with a series of von Frey filaments with logarithmically increasing stiffness (0.02-2.56 g, Stoelting), which was applied perpendicularly to the central plantar surface. We determined the 50% paw withdrawal threshold using the up-down method. […] To test cold sensitivity, mice were again placed on an elevated metal mesh floor in isolated chambers, and a ˜20 μl acetone drop was applied to the central plantar surface of the mouse hindpaw using a pipette.
For the experiments utilizing i.t. 2′3′-cGAMP and 3′3′-cGAMP complexed with Lipofectamine 2000 (ThermoFisher, 11668), 10 μg 2′3′-cGAMP or 3′3′-cGAMP was incubated at room temperature for 30 minutes in sterile PBS with 3 μl Lipofectamine 2000. In this case, the vehicle control was 3 μl Lipofectamine 2000 in PBS, as in a previous study which used this approach. […] For experiments utilizing rabbit anti-IFN-α or -β neutralizing antibodies, a polyclonal rabbit IgG antibody served as the control. Antibodies were utilized in vivo at 300 ng/mouse or in vitro at 300 ng/ml. Paclitaxel was administered via repeated i.p. injections every other day for 4 days at a dose of 2 mg/kg. For the whole mount DRG recordings, young mice (4-6 weeks) were administered a single 6 mg/kg dose one week prior to the experiment. All intrathecal injections were performed under brief anesthesia with 2-2.5% isoflurane. Drugs administered by intrathecal injection were preceded by shaving a small area on the back corresponding to the injection site, followed by spinal puncture using a 30-gauge needle between the L5-L6 levels to deliver a maximum of 5-10 μl into the cerebrospinal fluid. Successful intrathecal injection was always confirmed by a brisk tail-flick upon delivery. For the experiments involving intraplantar (i.pl.) injection, IFN-α was dissolved in sterile saline and administered at the concentrations indicated in the figures in a total volume of 20 μl, administered under 2-2.5% isoflurane anesthesia to minimize animal stress. For these experiments, vehicle (saline) or IFN-α were slowly and carefully expressed into the left dorsal hindpaw of anesthetized mice and allowed to perfuse the tissue for ˜20 seconds prior to removal of the needle. […] Mechanical sensory testing was done anteriorly and care was taken to avoid Von Frey filament stimulation of the injection site.

naïve mice [3] = test: Hot plate test after resiniferatoxin ablation of TRPV1+ nociceptors; assay type: in vivo, mouse
[4] = Solubility noted at drug preparation; assay type: physicochemical; settings: diluted in PBS containing 5% DMSO and 0.0625% Tween-20
Protocol: For the experiments utilizing i.t. 2′3′-cGAMP and 3′3′-cGAMP complexed with Lipofectamine 2000 (ThermoFisher, 11668), 10 μg 2′3′-cGAMP or 3′3′-cGAMP was incubated at room temperature for 30 minutes in sterile PBS with 3 μl Lipofectamine 2000. In this case, the vehicle control was 3 μl Lipofectamine 2000 in PBS, as in a previous study which used this approach. […] For experiments utilizing rabbit anti-IFN-α or -β neutralizing antibodies, a polyclonal rabbit IgG antibody served as the control. Antibodies were utilized in vivo at 300 ng/mouse or in vitro at 300 ng/ml. Paclitaxel was administered via repeated i.p. injections every other day for 4 days at a dose of 2 mg/kg. For the whole mount DRG recordings, young mice (4-6 weeks) were administered a single 6 mg/kg dose one week prior to the experiment. All intrathecal injections were performed under brief anesthesia with 2-2.5% isoflurane. Drugs administered by intrathecal injection were preceded by shaving a small area on the back corresponding to the injection site, followed by spinal puncture using a 30-gauge needle between the L5-L6 levels to deliver a maximum of 5-10 μl into the cerebrospinal fluid. Successful intrathecal injection was always confirmed by a brisk tail-flick upon delivery. […]

mice with CIPN or BCP = test: Conditioned place preference (CPP) assay in chronic pain (CIPN and BCP) models; assay type: in vivo, mouse; settings: mice with neuropathic pain (CIPN), i.t. 35 nmol
Protocol: (§2) All mice underwent 3 d of preconditioning habituation in a temperature- and humidity-controlled room under low-light conditions between 08:00-16:00 in a two compartment CPP chamber (Med Associates Inc.). The two compartments differed by both visual and tactile cues. On the 4th day, animal behavior was video-recorded using a webcam connected to a laptop computer, and animal movement was automatically tracked for 15 minutes using the ANY-Maze software (Stoelting). […] On the conditioning day(s) (day 5 for single trial; day 5-7 for repeated trials), two pairing sessions were performed, with vehicle pairing in the AM session and drug treatment (e.g., vehicle or drug) in the PM session, separated by 4 h. In the AM session, mice always received vehicle (10 μl saline, delivered via i.t. injection under isoflurane anesthesia) and were immediately placed in their preferred CPP chamber for 2 h. […] 24 h after the completion of the pairing experiments, mice were placed in the CPP test box with access to both chambers and behavior was recorded for 15 minutes and analyzed using the ANY-Maze software for chamber preference. CPP score was calculated as the inverse of the time spent in the preferred chamber according to: [post-preference (sec)—pre-preference (sec)]. Vehicle served as a negative control for these experiments, while morphine (three trials/naïve mice) or clonidine (single trial/ongoing pain) served as positive controls.

[5] = system: Ifnar1+/+ and Ifnar1−/− mice; assay type: in vivo, mouse; settings: i.t. IFN-α
Protocol: as §1, with “pipette. […]” for “pipette.”

naïve mice [6] = test: Naloxone reversal of antinociception; assay type: in vivo, mouse; settings: naloxone 10 mg/kg i.p.; morphine 2 nmol i.t., DMXAA or ADU-S100 35 nmol i.t.
Protocol: Following naloxone delivery, mice were tested within 15 minutes. For the experiments testing whether mice developed tolerance to the effects of STING agonists, vehicle or DMXAA (35 nmol) were administered via i.t. injection. Naïve mice received five single injections at D0, D3, D6, D9, and D12, with testing each day 4 h after injection. SNI mice received injections on two consecutive days beginning on D7 (D7 and D8) and every 48 h afterwards following the conclusion of sensory testing (D10, D12, D14, D16, and D18). Spinal cords (L4-L5) were collected for analysis of glial cell activation at D21 following SNI.

naïve mice [7] = test: Conditioned place preference (CPP) assay in naïve mice; settings: i.t., morphine 2 nmol, DMXAA or ADU-S100 35 nmol
Protocol: as §2

[8] = system: rhesus macaques (Macaca mulatta); settings: comparison value; cited from earlier work

Molecule: O=P(O)(O)C(O)(Cn1ccnc1)P(=O)(O)O [ZA, Zoledronic acid]
- mice with distal bone fractures (tumor-bearing femora): 25%
- body weight ([1]; LLC model, twice i.p.): no effect on overall body weight

Molecule: Nc1nc2c(ncn2[C@@H]2O[C@@H]3COP(=O)(O)O[C@H]4[C@@H](O)[C@H](n5cnc6c(N)ncnc65)O[C@@H]4COP(=O)(O)O[C@H]3[C@H]2O)c(=O)[nH]1 [3′3′-cGAMP]
- acute effect on bone cancer pain ([1]; d11, 4 h after single i.p. injection): could attenuate cold allodynia or/and mechanical allodynia
- mechanical sensory thresholds (von Frey) (naïve mice [2]; naïve mice): induced dose-dependent antinociception; also recorded: elevated mechanical thresholds

Molecule: C=C(C)[C@]12C[C@@H](C)[C@@]34O[C@](Cc5ccccc5)(O[C@@H]1[C@@H]3C=C(COC(=O)Cc1ccc(O)c(OC)c1)C[C@]1(O)C(=O)C(C)=C[C@@H]41)O2 [RTX]
- heat sensitivity in the hot plate test (naïve mice [3]): heat insensitivity

Molecule: IFN-β: recombinant mouse IFN-β produced in mammalian cells (PBL Assay Science, 12410-1)
- antinociception in WT vs Ifnar1-gKO/cKO mice (naïve mice [2]; i.t.): induced transient antinociception in WT mice which was abolished in Ifnar1-gKO/cKO mice
- mechanical hypersensitivity of STINGgt/gt mice (naïve mice [2]; i.t.): could transiently rescue mechanical hypersensitivity
- paw withdrawal thresholds after i.t. recombinant interferon (naïve mice [2]; naïve mice, i.t.): induced transient, dose-dependent antinociception; also recorded: increased paw withdrawal thresholds

Molecule: Cn1cc(Nc2nccc(N3C[C@H]4CC[C@@H](C3)N4C(=O)[C@@H]3CC3(F)F)n2)cn1 [PF-06700841]
- mechanical sensitivity after i.t. inhibitor or neutralizing antibody (naïve mice [2]; naïve mice, i.t.): induced transient, dose-dependent mechanical allodynia
- effect of pretreatment on IFN-β-induced antinociception (naïve mice [2]; naïve mice, i.t., 1 μg): abolished IFN-β-induced antinociception

Molecule: poly(I:C)
- effect on mechanical thresholds in knockout mice (naïve mice [2]; i.t. 1 μg, knockout genotypes): abolished in Ifnar1fx/fx; Nav1.8-Cre and RIG-I−/− mice
- mechanical thresholds after i.t. dsDNA or dsRNA analog (naïve mice [2]; i.t. 1 μg, responsive genotypes): elevated mechanical thresholds similarly in Ifnar1fx/fx (WT), STINGgt/gt, and cGAS−/− mice

Molecule: CCc1ccc(NC(=O)Nc2c[nH]c3ccccc23)cc1 [H-151]
- solubility [4]: poor solubility
- mechanical sensitivity after i.t. inhibitor or neutralizing antibody (naïve mice [2]; naïve mice, i.t.): transient dose-dependent hypersensitivity

Molecule: Clc1cccc(Cl)c1N=C1NCCN1 [clonidine]
- conditioned place preference, single pairing (mice with CIPN or BCP): robust CPP

Molecule: Nc1nc2c(ncn2[C@@H]2O[C@@H]3COP(=O)(O)O[C@H]4[C@@H](O)[C@H](n5cnc6c(N)ncnc65)O[C@@H]4COP(=O)(O)O[C@@H]2[C@@H]3O)c(=O)[nH]1 [2′3′-cGAMP, 2′3′ cyclic guanosine monophosphate—adenosine monophosphate]
- mechanical sensory thresholds (von Frey) (naïve mice [2]; naïve mice): induced dose-dependent antinociception; also recorded: elevated mechanical thresholds

Molecule: IFN-α
- antinociception in WT vs Ifnar1-gKO/cKO mice (naïve mice [2]; i.t.): induced transient antinociception in WT mice which was abolished in Ifnar1-gKO/cKO mice
- mechanical hypersensitivity of STINGgt/gt mice (naïve mice [2]; i.t.): could transiently rescue mechanical hypersensitivity
- paw withdrawal thresholds after i.t. recombinant interferon (naïve mice [2]; naïve mice, i.t.): increased paw withdrawal thresholds
- paw withdrawal thresholds after i.t. recombinant interferon (naïve mice [2]; naïve mice, i.t., listed as IFN-a): induced transient, dose-dependent antinociception
- mechanical hypersensitivity induced by intraplantar IFN-α [5]: could block the mechanical hypersensitivity induced by intraplantar IFN-α

Molecule: CN1CC[C@]23c4c5ccc(O)c4O[C@H]2[C@@H](O)C=C[C@H]3[C@H]1C5 [morphine]
- effect of naloxone on the antinociception of the substance (naïve mice [6]): reversed
- conditioned place preference, repeated pairing (naïve mice [7]): induces CPP
- intrathecal dose producing analgesia in NHPs [8]: 100 nmol

Molecule: O=C(Nc1ccc(I)cc1)c1ccc([N+](=O)[O-])o1 [C-176]
- solubility [4]: poor solubility
- mechanical sensitivity after i.t. inhibitor or neutralizing antibody (naïve mice [2]; naïve mice, i.t.): transient dose-dependent hypersensitivity
